Among the data in patent US12473289B2, “Heterocyclic compounds as delta-5 desaturase inhibitors and methods of use” (Amgen Inc., priority 2019, dated 2025) are IC50 values, retold here.

pIC50: −log10 of the molar value. Some results are limits rather than exact numbers.

Chain of Delta-5-Desaturase (D5D) (O60427 whole entry, species assumed): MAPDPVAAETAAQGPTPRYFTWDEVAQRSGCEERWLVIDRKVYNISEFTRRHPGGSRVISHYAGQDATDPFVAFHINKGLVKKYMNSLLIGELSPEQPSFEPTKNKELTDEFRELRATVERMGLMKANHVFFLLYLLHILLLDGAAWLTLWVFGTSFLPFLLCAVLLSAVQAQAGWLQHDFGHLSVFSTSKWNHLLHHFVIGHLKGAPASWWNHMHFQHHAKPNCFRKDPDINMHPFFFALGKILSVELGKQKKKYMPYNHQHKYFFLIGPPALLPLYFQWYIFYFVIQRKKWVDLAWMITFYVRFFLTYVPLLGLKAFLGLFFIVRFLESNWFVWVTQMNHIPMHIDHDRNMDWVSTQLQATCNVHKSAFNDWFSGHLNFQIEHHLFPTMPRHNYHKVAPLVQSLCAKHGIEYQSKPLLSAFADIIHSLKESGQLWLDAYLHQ

The assay concerns the target Delta-5-Desaturase (D5D) (Homo sapiens (Human), UniProt O60427). The assay can be described thus: In vitro measurement of Delta-5-Desaturase inhibitory activity using DGLA-CoA and Arachidonyl-CoA mass spectrometric assays. Format: biochemical. As to conditions: membrane preparations of D5D-overexpressing HEK293 6E cells; averaged over at least two independent runs. Here is the method: In vitro Measurement of Delta-5-Desaturase Inhibitory Activity using DGLA-CoA and Arachidonyl-CoA Mass Spectrometric Assays
Membrane preparations of D5D-overexpressing HEK293 6E cells were prepared in which the total protein concentration was 5.6 mg/mL. Stock D5D membrane preparations were diluted in D5D assay buffer (25 mM 2-amino-2-(hydroxymethyl)-1,3-propanediol, pH 7.5 containing 10 mM MgCl2, 1 mM octyl glucoside (SigmaAldrich 0-8001), 1 mM tris(2-carboxyethyl)phosphine hydrochloride (SigmaAldrich 646547)) to a final D5D membrane concentration of 10 μg/mL in an assay plate containing serially diluted test compounds. To 15 μL of this D5D preparation was added 15 μL of a substrate solution (0.25 mM NADH (nicotinamide adenine dinucleotide, Roche Diag. 10107735001), 0.25 mM adenosine triphosphate (SigmaAldrich A-3377), 0.05 mM coenzyme A hydrate (SigmaAldrich C-4282), and 0.01 mM DGLA (dihomo-g-linolenic acid, Sigma E-4504) in the same D5D assay buffer. After one-hour incubation at ambient temperature acetonitrile (30 μL) was added to quench the reaction and plates were centrifuged for 10 min @3,000 rpm. Mass spectrometric analysis involved a Rapidfire 360 SPE system coupled to an ABSciex API4000 Triple Quadrupole mass spectrometer using a C18 SPE cartridge (G9203-80105) with ionization in negative mode (solvent A=100% water; solvent B=100% acetonitrile, each solvent containing 5 mM ammonium acetate). DGLA-CoA and Arachidonyl-CoA were detected by multiple reaction monitoring (MRM) of the doubly charged parent ions at m/z 526.6 and 525.6, respectively.
Sx is value from unknown sample, So is value from DMSO alone and Sc is value from no enzyme well. For CRC analysis, the % of inhibitions were analyzed with 4 Parameter Logistic Model or Sigmoidal Dose-Response Model using XLfit (IDBS, Guilford, UK). The potency of the test item was expressed as IC50 nM, corresponding to the test item concentration able to inhibit the 50% of the enzyme maximal response. IC50 values were averaged values determined by at least two independent runs.
This assay may be used to test any of the compounds described herein to assess and characterize a compound's ability to inhibit D5D.
One may read the pIC50 as the IC50 on a negative log10 scale, so that one unit is a factor of ten. The low end stands for a high IC50, the high end for a low IC50. The compound `COc1ccn2c(=O)c(-c3ccc(CCC#N)cc3)c(C(F)(F)F)nc2c1` [Example 1-1, 3-(4-(8-Methoxy-4-oxo-2-(trifluoromethyl)-4H-pyrido[1,2-a]pyrimidin-3-yl)phenyl)propanenitrile] showed a pIC50 of 6.71. Under `N#Cc1ccn2c(=O)c(-c3cnn(CC(F)(F)C(F)(F)F)c3)c(CF)nc2c1` [Example 1-86, 2-(fluoromethyl)-4-oxo-3-(1-(2,2,3,3,3-pentafluoropropyl)-1H-pyrazol-4-yl)-4H-pyrido[1,2-a]pyrimidine-8-carbonitrile] stands 6.87; under `O=c1c(-c2cnn(CC(F)(F)C(F)(F)F)c2)c(C(F)(F)F)nc2ccc(N3CCC3)cn12` [Example 39-28, 7-(azetidin-1-yl)-3-[1-(2,2,3,3,3-pentafluoropropyl)-1H-pyrazol-4-yl]-2-(trifluoromethyl)-4H-pyrido[1,2-a]pyrimidin-4-one], under 4.17. For `COc1ccn2c(=O)c(-c3cc(CCC(F)(F)F)no3)c(C(F)(F)F)nc2c1` [Example 55, 8-Methoxy-2-(trifluoromethyl)-3-[3-(3,3,3-trifluoropropyl)-1,2-oxazol-5-yl]-4H-pyrido[1,2-a]pyrimidin-4-one] the value was 8.06; for `COc1ccn2c(=O)c(-c3ccc(OCC(F)(F)F)cc3Cl)c(C(F)(F)F)nc2c1` [Example 8-3, 3-(2-chloro-4-(2,2,2-trifluoroethoxy)phenyl)-8-methoxy-2-(trifluoromethyl)-4H-pyrido[1,2-a]pyrimidin-4-one], 7.65; for `COc1ccn2c(=O)c(-c3ccc(OCC(F)(F)F)cc3)c(C)nc2c1` [Example 1-67, 8-methoxy-2-methyl-3-(4-(2,2,2-trifluoroethoxy)phenyl)-4H-pyrido[1,2-a]pyrimidin-4-one], 7.47.

`COc1ccn2c(=O)c(-c3cnn(CC4CC4)c3)c(C(F)(F)F)nc2c1` [Example 39-45, 3-[1-(cyclopropylmethyl)-1H-pyrazol-4-yl]-8-methoxy-2-(trifluoromethyl)-4H-pyrido[1,2-a]pyrimidin-4-one] showed a pIC50 of 7.32.

As to `O=c1c(-c2cnn(CC(F)(F)C(F)(F)F)c2)c(C(F)(F)F)nc2cc(OCCl)cnn12` [Example 48, 8-(Chloromethoxy)-3-[1-(2,2,3,3,3-pentafluoropropyl)-1H-pyrazol-4-yl]-2-(trifluoromethyl)-4H-pyrimido[1,2-b]pyridazin-4-one], the pIC50 was 6.92. `COc1ccn2c(=O)c(-n3cnc(CCC(F)(F)F)c3)c(C(F)(F)F)nc2c1` [Example 59, 8-Methoxy-2-(trifluoromethyl)-3-[4-(3,3,3-trifluoropropyl)-1H-imidazol-1-yl]-4H-pyrido[1,2-a]pyrimidin-4-one] gave a pIC50 of 6.44. Under `Cc1nccn2c(=O)c(-c3cnn(CC(F)(F)C(F)(F)F)c3)c(C(F)(F)F)nc12` [Example 39-41, 9-methyl-3-[1-(2,2,3,3,3-pentafluoropropyl)-1H-pyrazol-4-yl]-2-(trifluoromethyl)-4H-pyrazino[1,2-a]pyrimidin-4-one] stands 7.19. Under `COc1ccn2c(=O)c(-c3cnn(CC(F)(F)F)c3)c(C(F)(F)F)nc2c1` [Example 1-74, 8-methoxy-3-(1-(2,2,2-trifluoroethyl)-1H-pyrazol-4-yl)-2-(trifluoromethyl)-4H-pyrido[1,2-a]pyrimidin-4-one] stands 7.56; under `Cc1cc2nc(C(F)(F)F)c(-c3cnn(CCC(F)(F)F)c3)c(=O)n2cc1Cl` [Example 41-2, 7-chloro-8-methyl-2-(trifluoromethyl)-3-[1-(3,3,3-trifluoropropyl)-1H-pyrazol-4-yl]-4H-pyrido[1,2-a]pyrimidin-4-one], 7.29; under `O=c1c(-c2cnn(-c3ccccc3)c2)c(C(F)(F)F)nc2ccccn12` [Example 1-43, 3-(1-phenyl-1H-pyrazol-4-yl)-2-(trifluoromethyl)-4H-pyrido[1,2-a]pyrimidin-4-one], 7.34. Take `[2H]C([2H])([2H])Oc1ccn2c(=O)c(-c3ccc(OCCF)cc3)c(C(F)(F)F)nc2c1` [Example 1-51, 3-(4-(2-fluoroethoxy)phenyl)-8-(methyloxy-d3)-2-(trifluoromethyl)-4H-pyrido[1,2-a]pyrimidin-4-one]: the pIC50 is 7.58. For `Cc1ccc2nc(C(F)(F)F)c(-c3cnc(OCC(F)(F)F)nc3)c(=O)n2n1` [Example 39-36, 7-methyl-3-[2-(2,2,2-trifluoroethoxy)pyrimidin-5-yl]-2-(trifluoromethyl)-4H-pyrimido[1,2-b]pyridazin-4-one] the value was under 4.17. As for `CNc1ccn2c(=O)c(-c3ccc(OCC(F)(F)F)cc3)c(C(F)(F)F)nc2n1` [Example 14-1, 8-(Methylamino)-3-(4-(2,2,2-trifluoroethoxy)phenyl)-2-(trifluoromethyl)-4H-pyrimido[1,2-a]pyrimidin-4-one], the pIC50 was 7.39. Under `O=c1c(-c2cnc(OCC(F)(F)F)nc2)c(C(F)(F)F)nc2ccc(C3CC3)cn12` [Example 39-20, 7-cyclopropyl-3-[2-(2,2,2-trifluoroethoxy)pyrimidin-5-yl]-2-(trifluoromethyl)-4H-pyrido[1,2-a]pyrimidin-4-one] stands under 4.17; under `COc1ccn2c(=O)c(-c3cnn(CCC(F)(F)F)c3)c(C(F)(F)F)nc2n1` [Example 2-4, 8-methoxy-2-(trifluoromethyl)-3-(1-(3,3,3-trifluoropropyl)-1H-pyrazol-4-yl)-4H-pyrimido[1,2-a]pyrimidin-4-one], 7.24. Under `COc1ccn2c(=O)c(-c3ccc(OC[C@@H]4CC4(F)F)cc3)c(C(F)(F)F)nc2c1` (single isomer, unassigned) [Example 1-84] stands 8.57.

In turn, `C[S@@+]([O-])c1ccn2c(=O)c(-c3ccc(OCC(F)(F)F)cc3)c(C(F)(F)F)nc2c1` [Example 15-2, 8-((R)-methylsulfinyl)-3-(4-(2,2,2-trifluoroethoxy)phenyl)-2-(trifluoromethyl)-4H-pyrido[1,2-a]pyrimidin-4-one] had a pIC50 of 6.25. For the compound `Cc1cc2nc(C(F)(F)F)c(-c3ccc(OCC(F)(F)F)cc3)c(=O)n2cc1Cl` [Example 41-3, 7-chloro-8-methyl-3-[4-(2,2,2-trifluoroethoxy)phenyl]-2-(trifluoromethyl)-4H-pyrido[1,2-a]pyrimidin-4-one], the pIC50 was 6.62.

In turn, `COc1cc(C)n2c(=O)c(-c3cnn(CC(F)(F)C(F)(F)F)c3)c(C(F)(F)F)nc2c1` [Example 39-8, 8-methoxy-6-methyl-3-[1-(2,2,3,3,3-pentafluoropropyl)-1H-pyrazol-4-yl]-2-(trifluoromethyl)-4H-pyrido[1,2-a]pyrimidin-4-one] showed a pIC50 of 5.87.

Consider `CC(C)(O)c1ccn2c(=O)c(-c3cnn(CC(F)(F)C(F)(F)F)c3)c(C(F)(F)F)nc2c1` [Example 39-7, 8-(2-hydroxypropan-2-yl)-3-[1-(2,2,3,3,3-pentafluoropropyl)-1H-pyrazol-4-yl]-2-(trifluoromethyl)-4H-pyrido[1,2-a]pyrimidin-4-one], for which the pIC50 was 5.84. For `COc1ccn2c(=O)c(-c3ccc(OC(F)(F)F)cc3)c(C(F)(F)F)nc2c1` [Example 1-49, 8-methoxy-3-(4-(trifluoromethoxy)phenyl)-2-(trifluoromethyl)-4H-pyrido[1,2-a]pyrimidin-4-one] the value was 8.27; for `Cc1cn2c(=O)c(-c3cnn(CC(F)(F)C(F)(F)F)c3)c(C(F)(F)F)nc2c(C)n1` [Example 39-43, 7,9-dimethyl-3-[1-(2,2,3,3,3-pentafluoropropyl)-1H-pyrazol-4-yl]-2-(trifluoromethyl)-4H-pyrazino[1,2-a]pyrimidin-4-one], 6.75; for `COc1ccn2c(=O)c(-c3cc(-c4ccccc4)no3)c(C(F)(F)F)nc2c1` [Example 1-5, 8-methoxy-3-(3-phenyl-1,2-oxazol-5-yl)-2-(trifluoromethyl)-4H-pyrido[1,2-a]pyrimidin-4-one], 7.34. In turn, `O=c1c(-c2ccc(OCC(F)(F)F)cc2)c(C(F)(F)F)nc2cc(OCF)ccn12` [Example 17-2, 8-(fluoromethoxy)-3-(4-(2,2,2-trifluoroethoxy)phenyl)-2-(trifluoromethyl)-4H-pyrido[1,2-a]pyrimidin-4-one] showed a pIC50 of 7.31. Under `COCc1ccn2c(=O)c(-c3cnn(CC(F)(F)C(F)(F)F)c3)c(C(F)(F)F)nc2c1` [Example 36, 8-(Methoxymethyl)-3-[1-(2,2,3,3,3-pentafluoropropyl)-1H-pyrazol-4-yl]-2-(trifluoromethyl)-4H-pyrido[1,2-a]pyrimidin-4-one] stands 6.79.
